Test results reported in patent US5292737A, “N,N'-bis(sulfonamido)-2-amino-4-iminonaphthalen-1-ones and N,N'-bis(amido)-2-amino-4-iminonaphthalen-1-ones” (Sphinx Pharmaceuticals Corporation, priority 1992, dated 1994).
Like-named read-outs stand apart in the source and are kept apart here.

What was measured:
PKC isoenzyme δ = biological target: T1, PKC isoenzyme δ (Homo sapiens, UniProt Q05655); assay: Protein kinase C inhibition assay, PKC isoenzyme δ; format: biochemical
T1 construct: made in house; host or cells: baculovirus-insect cell expression system
T1 sequence (Q05655 whole entry): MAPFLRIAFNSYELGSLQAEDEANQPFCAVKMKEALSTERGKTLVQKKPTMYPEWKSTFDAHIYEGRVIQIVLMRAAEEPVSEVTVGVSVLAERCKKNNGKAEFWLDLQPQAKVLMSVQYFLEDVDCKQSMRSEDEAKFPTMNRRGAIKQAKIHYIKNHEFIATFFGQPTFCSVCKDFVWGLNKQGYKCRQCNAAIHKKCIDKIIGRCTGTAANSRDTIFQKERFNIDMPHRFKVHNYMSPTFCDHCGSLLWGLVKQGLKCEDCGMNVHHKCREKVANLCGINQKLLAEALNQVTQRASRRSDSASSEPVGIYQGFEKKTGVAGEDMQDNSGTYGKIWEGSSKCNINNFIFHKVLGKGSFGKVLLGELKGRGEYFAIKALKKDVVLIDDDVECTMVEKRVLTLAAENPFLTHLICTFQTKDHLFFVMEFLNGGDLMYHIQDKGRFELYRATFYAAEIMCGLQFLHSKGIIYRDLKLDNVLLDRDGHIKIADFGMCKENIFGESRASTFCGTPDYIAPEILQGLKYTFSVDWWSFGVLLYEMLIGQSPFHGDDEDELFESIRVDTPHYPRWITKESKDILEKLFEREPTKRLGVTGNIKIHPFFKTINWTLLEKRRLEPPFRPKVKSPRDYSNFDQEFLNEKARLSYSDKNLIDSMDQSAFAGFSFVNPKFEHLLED
Outline: (§1)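 Inhibition is measured as the compound concentration halving phosphate transfer to histone H1 or myelin basic protein by baculovirus-expressed enzyme. Assays use near-physiologic conditions with sub-saturating phosphatidylserine/DAG vesicles, compound at four concentrations up to 150 μM, and a 10 min reaction terminated by trichloroacetic acid before filter counting.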

[1] = test system: MCF-7 human breast tumor cell line; assay: Human Tumor Cell Growth Inhibition (3H-thymidine incorporation); format: cell-based
Procedure: MCF-7 a human breast tumor cell line was obtained from the National Cancer Institute, Frederick, Md. Tumor cells were trypsinized with 0.05% trypsin obtained from GIBCO (Grand Island Biological Co. Laboratories, Grand Island, N.Y.), counted with a hemacytometer and seeded at a concentration of 7,500 cells/well in a 96 well microtiter plate and allowed to attach to the surface overnight. To determine a concentration response, test agents were serially diluted an […] added at 2× final concentration to quadruplicate cultures to bring the total volume of each well to […]. The microtiter plate was then incubated at 37° C., 5% CO2 for 24 hrs with ^3 H-thymidine added at a concentration of 0.5 mCi/well in […] of 0.05% trypsin (GIBCO) was added to each well. Cells were checked microscopically to determine detachment from surfaces, and plates were harvested with a cell harvester (PHD, Cambridge Technology, Inc.). Filter paper corresponding to wells were placed in scintillation vials and counted to determine the amount ^3 H-thymidine incorporated by the cells. Counts per minute (CPM) of quadruplicate cultures were averaged and a percent of control calculated for each test agent concentration by the following formula: [formula]
The IC50 or concentration necessary to inhibit the proliferation of cells by 50% compared to control, of each test agent was determined by plotting % control vs log concentration for each dilution and then linear forecasting the 50% control value onto the X axis on a Quattro Pro computer program. Only regression values with a correlation coefficient greater then 0.9 were considered acceptable.

PKC isoenzyme γ = biological target: T2, PKC isoenzyme γ (Homo sapiens, UniProt P05129); assay: Protein kinase C inhibition assay, PKC isoenzyme γ; format: biochemical
T2 construct: made in house; host or cells: baculovirus-insect cell expression system
Outline: as §1

PKC isoenzyme ε = biological target: T3, PKC isoenzyme ε (Homo sapiens, UniProt Q02156); assay: Protein kinase C inhibition assay, PKC isoenzyme ε; format: biochemical
T3 construct: made in house; host or cells: baculovirus-insect cell expression system
T3 sequence (Q02156 1-737): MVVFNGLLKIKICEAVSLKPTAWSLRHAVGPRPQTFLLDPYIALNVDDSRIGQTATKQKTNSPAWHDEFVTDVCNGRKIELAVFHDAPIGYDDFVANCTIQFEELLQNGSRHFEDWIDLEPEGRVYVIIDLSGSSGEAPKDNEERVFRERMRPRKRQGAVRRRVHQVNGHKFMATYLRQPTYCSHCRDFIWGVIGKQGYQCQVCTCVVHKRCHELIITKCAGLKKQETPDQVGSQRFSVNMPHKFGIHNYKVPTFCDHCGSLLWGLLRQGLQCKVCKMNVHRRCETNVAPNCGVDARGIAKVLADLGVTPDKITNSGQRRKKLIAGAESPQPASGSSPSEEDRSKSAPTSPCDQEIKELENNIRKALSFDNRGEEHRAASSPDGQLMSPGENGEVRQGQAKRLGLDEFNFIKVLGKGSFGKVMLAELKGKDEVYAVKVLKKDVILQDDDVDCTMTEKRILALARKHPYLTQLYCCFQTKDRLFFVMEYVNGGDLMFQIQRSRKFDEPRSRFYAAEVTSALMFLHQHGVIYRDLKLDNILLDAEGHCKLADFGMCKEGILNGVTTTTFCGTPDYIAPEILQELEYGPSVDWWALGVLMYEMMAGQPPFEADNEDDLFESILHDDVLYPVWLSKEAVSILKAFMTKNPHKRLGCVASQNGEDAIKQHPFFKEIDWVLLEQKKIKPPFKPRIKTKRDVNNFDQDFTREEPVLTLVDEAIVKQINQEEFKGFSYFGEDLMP
Outline: as §1

[2] = test system: normal human epidermal keratinocyte (NHEK) cells; assay: Human Keratinocyte Inhibition (3H TdR Assay); format: cell-based; conditions: 24 h incubation, 3H-thymidine
PKC isoenzyme βII = biological target: T4, PKC isoenzyme βII (Homo sapiens, UniProt P05771); assay: Protein kinase C inhibition assay, PKC isoenzyme βII; format: biochemical
T4 construct: made in house; host or cells: baculovirus-insect cell expression system
T4 sequence (P05771 1-673 isoform P05771-2): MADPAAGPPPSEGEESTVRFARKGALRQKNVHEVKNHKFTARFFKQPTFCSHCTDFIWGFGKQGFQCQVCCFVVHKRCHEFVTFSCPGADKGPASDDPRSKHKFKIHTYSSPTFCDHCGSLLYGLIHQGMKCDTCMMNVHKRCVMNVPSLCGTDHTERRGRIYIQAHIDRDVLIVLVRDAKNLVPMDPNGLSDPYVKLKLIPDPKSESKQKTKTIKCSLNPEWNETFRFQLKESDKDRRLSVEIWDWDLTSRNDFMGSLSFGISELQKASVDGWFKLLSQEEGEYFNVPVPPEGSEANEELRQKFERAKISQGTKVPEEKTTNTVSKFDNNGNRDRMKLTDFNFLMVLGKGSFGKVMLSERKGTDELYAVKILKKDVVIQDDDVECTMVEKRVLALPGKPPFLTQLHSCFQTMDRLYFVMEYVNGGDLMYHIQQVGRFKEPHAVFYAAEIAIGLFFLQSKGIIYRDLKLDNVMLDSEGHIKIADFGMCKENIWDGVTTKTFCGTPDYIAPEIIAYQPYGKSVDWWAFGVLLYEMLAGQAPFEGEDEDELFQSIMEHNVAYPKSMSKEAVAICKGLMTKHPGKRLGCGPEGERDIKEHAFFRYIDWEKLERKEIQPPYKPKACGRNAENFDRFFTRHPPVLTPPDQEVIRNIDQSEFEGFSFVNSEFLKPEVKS
Outline: as §1

[3] = Homo sapiens, MCF7, MCF-7, 24 hrs

Structure (SMILES)	IC50 (PKC isoenzyme δ; read-out: IC50 PKC δ)	IC50 [1, 3]	IC50 (PKC isoenzyme γ; read-out: IC50 PKC γ)	IC50 (PKC isoenzyme ε; read-out: IC50 PKC ε)	IC50 (PKC isoenzyme βII; read-out: IC50 PKC βII)	IC50 ([1]; MCF-7, 24 hrs)	IC50 ([2]; Homo sapiens)	IC50 [2]	IC50 (PKC isoenzyme δ; IC50 PKC δ)	IC50 (PKC isoenzyme γ; IC50 PKC γ)	IC50 (PKC isoenzyme ε; IC50 PKC ε)	IC50 (PKC isoenzyme βII; IC50 PKC βII)
Cc1cc(C)nc(NC(=O)c2ccc(N=C3C=C(Nc4ccc(C(=O)Nc5nc(C)cc(C)n5)cc4)C(=O)c4ccccc43)cc2)n1 [Compound 3ai]	> 150 µM	0.03 µM	9 µM	> 105 µM	101 µM	–	0.16 µM	–	–	–	–	–
Cc1cc(C)nc(NC(=O)c2ccc(N=C3C=C(Nc4ccc(C(=O)Nc5cc(C)cc(C)n5)cc4)C(=O)c4ccccc43)cc2)c1 [Compound 3ah]	> 150 µM	1.4 µM	70 µM	> 150 µM	145 µM	–	1.4 µM	–	–	–	–	–
O=C1C(Nc2ccc(S(=O)(=O)NCCNc3ccc([N+](=O)[O-])cn3)cc2)=CC(=Nc2ccc(S(=O)(=O)NCCNc3ccc([N+](=O)[O-])cn3)cc2)c2ccccc21 [Compound 3ac]	–	0.16 µM	–	–	–	–	0.08 µM	–	147 µM	22 µM	> 150 µM	89 µM
O=C1C(Nc2ccc(S(=O)(=O)Nc3ccccn3)cc2)=CC(=Nc2ccc(S(=O)(=O)Nc3ccccn3)cc2)c2ccccc21 [Compound 3i]	37 µM	13.8 µM	15 µM	> 150 µM	26 µM	–	–	0.61 µM	–	–	–	–
O=C1C(Nc2ccc(S(=O)(=O)Nc3cnc4ccccc4n3)cc2)=CC(=Nc2ccc(S(=O)(=O)Nc3cnc4ccccc4n3)cc2)c2ccccc21 [Compound 3m]	122 µM	17.9 µM	14 µM	> 150 µM	22 µM	–	0.4 µM	–	–	–	–	–

Continued, in another order:

IC50 (PKC isoenzyme δ; read-out: IC50 PKC δ)	IC50 [1, 3]	IC50 (PKC isoenzyme γ; read-out: IC50 PKC γ)	IC50 (PKC isoenzyme ε; read-out: IC50 PKC ε)	IC50 (PKC isoenzyme βII; read-out: IC50 PKC βII)	IC50 ([1]; MCF-7, 24 hrs)	Structure (SMILES)	IC50 ([2]; Homo sapiens)	IC50 [2]	IC50 (PKC isoenzyme δ; IC50 PKC δ)	IC50 (PKC isoenzyme γ; IC50 PKC γ)	IC50 (PKC isoenzyme ε; IC50 PKC ε)	IC50 (PKC isoenzyme βII; IC50 PKC βII)
86 µM	16.6 µM	29 µM	> 150 µM	23 µM	–	Cc1ccnc(NS(=O)(=O)c2ccc(N=C3C=C(Nc4ccc(S(=O)(=O)Nc5nccc(C)n5)cc4)C(=O)c4ccccc43)cc2)n1 [Compound 3f]	1.2 µM	–	–	–	–	–
72 µM	–	21 µM	> 150 µM	7 µM	7.03 µM	Cc1cc(C)nc(NS(=O)(=O)c2ccc(N=C3C=C(Nc4ccc(S(=O)(=O)Nc5nc(C)cc(C)n5)cc4)C(=O)c4ccccc43)cc2)n1 [Compound 3c]	–	0.52 µM	–	–	–	–
85 µM	4.8 µM	16 µM	> 150 µM	52 µM	–	Cc1cc(C)nc(NS(=O)(=O)c2cccc(N=C3C=C(Nc4cccc(S(=O)(=O)Nc5cc(C)cc(C)n5)c4)C(=O)c4ccccc43)c2)c1 [Compound 3ae]	< 0.39 µM	–	–	–	–	–
> 150 µM	1.02 µM	24 µM	> 150 µM	141 µM	–	O=C1C(Nc2ccc(S(=O)(=O)NCc3ccccn3)cc2)=CC(=Nc2ccc(S(=O)(=O)NCc3ccccn3)cc2)c2ccccc21 [Compound 3n]	–	1.1 µM	–	–	–	–
58 µM	12.2 µM	55 µM	> 150 µM	53 µM	–	COc1cnc(NS(=O)(=O)c2ccc(N=C3C=C(Nc4ccc(S(=O)(=O)Nc5ncc(OC)cn5)cc4)C(=O)c4ccccc43)cc2)nc1 [Compound 3h]	0.9 µM	–	–	–	–	–
17 µM	16.1 µM	15 µM	> 150 µM	45 µM	–	COc1ccc(NS(=O)(=O)c2ccc(N=C3C=C(Nc4ccc(S(=O)(=O)Nc5ccc(OC)nn5)cc4)C(=O)c4ccccc43)cc2)nn1 [Compound 3j]	–	0.34 µM	–	–	–	–
49 µM	–	16 µM	35 µM	28 µM	1.8 µM	Cc1cc(C)nc(NS(=O)(=O)c2cc(N=C3C=C(Nc4ccc(C)c(S(=O)(=O)Nc5cc(C)cc(C)n5)c4)C(=O)c4ccccc43)ccc2C)c1 [Compound 6ag]	0.5 µM	–	–	–	–	–
40 µM	16.5 µM	14 µM	> 150 µM	25 µM	–	COc1cc(NS(=O)(=O)c2ccc(N=C3C=C(Nc4ccc(S(=O)(=O)Nc5cc(OC)nc(OC)n5)cc4)C(=O)c4ccccc43)cc2)nc(OC)n1 [Compound 3g]	–	0.6 µM	–	–	–	–
